Data reported in patent US20110178104A1, “Anti-Heparin Compounds” (POLYMEDIX INC., priority 2010, published 2011).
Where “and” joins values, the source holds several entries; their conditions need not be identical. Identical values can stand only once.

Key:
enoxaparin = assay: FXa amidolytic assay (Example 10), enoxaparin; settings: read-out: Enox FXa EC50; enoxaparin 0.1 ug/ml; human antithrombin, bovine Factor Xa
Procedure: (§1) Two μl of test agent are added (range between 0.01 and 23 ug/ml) and incubated for 5 minutes at 23° C. Bovine Factor Xa was added to a final concentration of 0.636 nkat/mL and incubated for a further 10 minutes at 23° C.

fondaparinux = assay: FXa amidolytic assay (Example 10), fondaparinux; settings: read-out: Fondap FXa EC50; fondaparinux 0.02 μg/mL; human antithrombin, bovine Factor Xa
Procedure: as §1

tinzaparin = assay: FXa amidolytic assay (Example 10), tinzaparin; settings: read-out: Tinzap FXa EC50; tinzaparin 0.1 ug/ml; human antithrombin, bovine Factor Xa
Procedure: as §1

Unfractionated heparin = assay: aPTT clotting assay, UFH 0.4 U/mL in plasma (Example 10); format: biochemical; settings: unfractionated heparin 0.4 U/mL in plasma; aPTT clotting
Procedure: aPTT clotting Assay: Unfractionated heparin was mixed with plasma at a final concentration of 0.4 U/mL (or concentration which increases aPTT time to between 120 and 300 seconds). […] The ACL Elite Hemostasis analyzer (Beckman Coulter™) was used to add aPTT reagent (HemosIL SynthASil) to supplemented plasma. Clotting was initiated by addition of CaCl2 and time to clot was recorded.

Structure (SMILES)	EC50 (enoxaparin)	EC50 (fondaparinux)	EC50 (tinzaparin)	EC50 (Unfractionated heparin)
COc1ccc(NC(=O)[C@H](CCCNC(=N)N)NC(=O)c2cc(NC(=O)[C@H](CCCNC(=N)N)NC(=O)c3cc(NC(=O)[C@H](C)NC(=O)CCCCNC(=N)N)ccc3OC)ccc2OC)cc1C(N)=O [Compound 224]	1.02 µM	4.45 µM	0.792 µM	7.23 µM
COc1cc(OC)c(C(=O)N[C@H]2CC[C@H](NC(=O)c3cc(C(=O)NCCN(C)C)c(OCCCCCN)cc3OCCCCCN)CC2)cc1C(=O)NCCN(C)C [Compound 228]	0.281 µM	> 10 µM	> 5 µM	1.11 µM
[2H]C(C([2H])C([2H])([2H])CN)[C@H](N)C(=O)Nc1ccc(OC)c(C(=O)N[C@@H](CCCCN)C(=O)Nc2ccc(OC)c(C(=O)N[C@@H](CCCCN)C(=O)Nc3ccc(OC)c(C(=O)N[C@@H](CCCCN)C(=O)Nc4ccc(OC)c(C(N)=O)c4)c3)c2)c1 (stereo partly drawn) [Compound 230]	0.252 µM	4.88 µM	0.147 µM	2.78 µM
COc1ccc(NC(=O)[C@H](CCCCN)NC(=O)c2cc(NC(=O)[C@H](CCCCN)NC(=O)c3cc(NC(=O)[C@H](CCCCN)NC(=O)c4cc(NC(=O)[C@H](N)CCCCN)ccc4OC)ccc3OC)ccc2OC)cc1C(N)=O [Compound 231]	0.192 µM	3.56 µM	0.099 µM	2.31 µM
COc1ccc(NC(=O)[C@H](C)NC(=O)c2cc(NC(=O)[C@H](CCCCN)NC(=O)c3cc(NC(=O)[C@H](CCCCN)NC(=O)c4cc(NC(=O)[C@@H](N)CCCCN)ccc4OC)ccc3OC)ccc2OC)cc1C(N)=O [Compound 232]	0.862 µM	> 10 µM	0.536 µM	3.24 µM
COc1ccc(NC(=O)[C@H](CCCCN)NC(=O)c2cc(NC(=O)[C@H](CCCCN)NC(=O)c3cc(NC(=O)[C@H](CCCCN)NC(=O)c4cc(NC(=O)[C@H](C)N)ccc4OC)ccc3OC)ccc2OC)cc1C(N)=O [Compound 233]	0.376 µM	3.46 µM	0.268 µM	1.59 µM
COc1ccc(NC(=O)[C@H](CCCNC(=N)N)NC(=O)c2cc(NC(=O)[C@@H](N)CCCNC(=N)N)ccc2OC)cc1C(=O)N[C@@H](CCCNC(=N)N)C(=O)Nc1ccc(OC)c(C(=O)N[C@@H](CCCNC(=N)N)C(=O)Nc2ccc(OC)c(C(=O)N3CCC[C@H]3C(N)=O)c2)c1 [Compound 234]	1.01 µM	> 10 µM	0.446 µM	> 10 µM
CSc1ccc(NC(=O)[C@H](CCCNC(=N)N)NC(=O)c2cc(NC(=O)[C@H](CCCNC(=N)N)NC(=O)c3cc(NC(=O)[C@H](CCCNC(=N)N)NC(=O)c4cc(NC(=O)[C@@H](N)CCCNC(=N)N)ccc4SC)ccc3SC)ccc2SC)cc1C(N)=O [Compound 235]	0.497 µM	10.7 µM	0.433 µM	> 10 µM
COc1ccc(NC(=O)[C@H](CCCCN)NC(=O)c2cc(NC(=O)[C@H](CCCCN)NC(=O)c3cc(NC(=O)[C@H](CCCCN)NC(=O)c4c[nH]c5ccccc45)ccc3OC)ccc2OC)cc1C(N)=O [Compound 238]	0.839 µM	1.86 µM	0.581 µM	5.34 µM
COc1ccc(NC(=O)[C@H](CCCCN)NC(=O)c2cc(NC(=O)[C@H](CCCCN)NC(=O)c3cc(NC(=O)[C@H](CCCCN)NC(=O)c4cc(NC(=O)[C@@H](N)CCCCN)cc(C(F)(F)F)c4)ccc3OC)ccc2OC)cc1C(N)=O [Compound 239]	0.241 µM	4 µM	0.124 µM	4.26 µM
COc1ccc(NC(=O)[C@H](CCCCN)NC(=O)c2cc(NC(=O)[C@H](CCCCN)NC(=O)c3cc(NC(=O)[C@H](CCCCN)NC(=O)c4cc(N)cc(C(F)(F)F)c4)ccc3OC)ccc2OC)cc1C(N)=O [Compound 240]	0.633 µM	2.09 µM	0.401 µM	> 10 µM
COc1ccc(NC(=O)[C@H](CCCCN)NC(=O)c2cc(NC(=O)[C@H](CCCCN)NC(=O)c3cc(NC(=O)[C@H](CCCCN)NC(=O)c4ccc(NC(=O)[C@@H](N)CCCCN)cc4)ccc3OC)ccc2OC)cc1C(N)=O [Compound 241]	0.431 µM	> 10 µM	0.167 µM	5.44 µM
COc1ccc(NC(=O)[C@H](CCCCN)NC(=O)c2cc(NC(=O)[C@H](CCCCN)NC(=O)c3cc(NC(=O)[C@H](CCCCN)NC(=O)c4cccc(N(C)C(=O)[C@@H](N)CCCCN)c4)ccc3OC)ccc2OC)cc1C(N)=O [Compound 242]	> 5 µM	> 10 µM	> 5 µM	1.39 µM
CNc1cccc(C(=O)N[C@@H](CCCCN)C(=O)Nc2ccc(OC)c(C(=O)N[C@@H](CCCCN)C(=O)Nc3ccc(OC)c(C(=O)N[C@@H](CCCCN)C(=O)Nc4ccc(OC)c(C(N)=O)c4)c3)c2)c1 [Compound 243]	1.15 µM	5.91 µM	0.752 µM	2.9 µM
COc1ccc(NC(=O)[C@H](CCCCN)NC(=O)c2cc(NC(=O)[C@H](CCCCN)NC(=O)c3cc(NC(=O)[C@H](CCCCN)NC(=O)c4ccc(NC(=O)[C@@H](N)CCCCN)cc4OC)ccc3OC)ccc2OC)cc1C(N)=O [Compound 244]	0.229 µM	4.71 µM	0.113 µM	1.46 µM
COc1ccc(NC(=O)[C@H](CCCCN)NC(=O)c2cc(NC(=O)[C@H](CCCCN)NC(=O)c3cc(NC(=O)[C@H](CCCCN)NC(=O)c4cc(NC(=O)[C@@H](N)CCCCN)ccc4SC)ccc3OC)ccc2OC)cc1C(N)=O [Compound 245]	0.256 µM and 0.224 µM	4.01 µM and 3.19 µM	0.118 µM and 0.125 µM	1.31 µM and 1.46 µM
COc1ccc(NC(=O)[C@H](CCCCN)NC(=O)c2cc(NC(=O)[C@H](CCCCN)NC(=O)c3cc(NC(=O)[C@H](CCCCN)NC(=O)c4cnc(N)s4)ccc3OC)ccc2OC)cc1C(N)=O [Compound 247]	3.14 µM	> 10 µM	1.35 µM	2.57 µM
COc1ccc(NC(=O)[C@H](CCCCN)NC(=O)c2cc(NC(=O)[C@H](CCCCN)NC(=O)c3cc(NC(=O)[C@H](CCCCN)NC(=O)c4cc(C(=O)NCCCCCN)c(OC)cc4OC)ccc3OC)ccc2OC)cc1C(N)=O [Compound 248]	0.208 µM	1.84 µM	0.158 µM	2.08 µM
COC(=O)c1cc(NC(=O)[C@H](CCCCN)NC(=O)c2cc(NC(=O)[C@H](CCCCN)NC(=O)c3cc(NC(=O)[C@H](CCCCN)NC(=O)c4cc(NC(=O)[C@@H](N)CCCCN)ccc4OC)ccc3OC)ccc2OC)ccc1OC [Compound 249]	0.466 µM	10.6 µM	0.215 µM	1.42 µM
COc1ccc(NC(=O)[C@H](CCCCN)NC(=O)c2cc(NC(=O)[C@H](CCCCN)NC(=O)c3cc(NC(=O)[C@H](CCCCN)NC(=O)c4cc(NC(=O)[C@@H](N)CCCCN)ccc4OC)ccc3SC)ccc2OC)cc1C(N)=O [Compound 251]	> 5 µM	> 10 µM	> 5 µM	> 10 µM
COc1ccc(NC(=O)[C@H](CCCCN)NC(=O)c2cc(NC(=O)[C@H](CCCCN)NC(=O)c3cc(NC(=O)[C@H](CCCCN)NC(=O)c4cc(NC(=O)[C@@H](N)CCCCN)ccc4OC)ccc3OC)ccc2SC)cc1C(N)=O [Compound 252]	> 5 µM	> 10 µM	> 5 µM	> 10 µM
COc1ccc(NC(=O)[C@H](CCCCN)NC(=O)c2cc(NC(=O)[C@@H](N)CCCCN)ccc2OC)cc1C(=O)N[C@@H](CCCCN)C(=O)Nc1ccc(OC)c(C(=O)N[C@@H](CCCCN)C(=O)Nc2ccc(SC)c(C(N)=O)c2)c1 [Compound 253]	1.07 µM	> 10 µM	0.472 µM	1.66 µM
COc1ccc(NC(=O)[C@@H](CCCNC(=N)N)NC(=O)c2cc(NC(=O)[C@@H](CCCNC(N)=O)NC(=O)c3cc(NC(=O)[C@@H](CCCNC(=N)N)NC(=O)c4cc(NC(=O)[C@H](N)CCCNC(=N)N)ccc4OC)ccc3OC)ccc2OC)cc1C(N)=O [Compound 254]	0.093 µM	0.448 µM	0.097 µM	1.64 µM
COc1ccc(NC(=O)[C@@H](CCCNC(N)=O)NC(=O)c2cc(NC(=O)[C@@H](CCCNC(=N)N)NC(=O)c3cc(NC(=O)[C@@H](CCCNC(=N)N)NC(=O)c4cc(NC(=O)[C@H](N)CCCNC(=N)N)ccc4OC)ccc3OC)ccc2OC)cc1C(N)=O [Compound 255]	0.114 µM	0.473 µM	0.119 µM	1.72 µM
COc1ccc(NC(=O)[C@H](CCCCN)NC(=O)c2cc(NC(=O)[C@H](CCCCN)NC(=O)c3cc(NC(=O)[C@H](CCCCN)NC(=O)c4cc(NC(=O)[C@@H](N)CCCNC(N)=O)ccc4OC)ccc3OC)ccc2OC)cc1C(N)=O [Compound 256]	0.233 µM	2.5 µM	0.151 µM	1.45 µM
COc1ccc(NC(=O)[C@H](CCCCN)NC(=O)c2cc(NC(=O)[C@H](CCCCN)NC(=O)c3cc(NC(=O)[C@H](CCCNC(N)=O)NC(=O)c4cc(NC(=O)[C@@H](N)CCCCN)ccc4OC)ccc3OC)ccc2OC)cc1C(N)=O [Compound 257]	0.205 µM	1.45 µM	0.13 µM	1.33 µM
COc1ccc(NC(=O)[C@H](CCCCN)NC(=O)c2cc(NC(=O)[C@H](CCCNC(N)=O)NC(=O)c3cc(NC(=O)[C@H](CCCCN)NC(=O)c4cc(NC(=O)[C@@H](N)CCCCN)ccc4OC)ccc3OC)ccc2OC)cc1C(N)=O [Compound 258]	0.198 µM	1.54 µM	0.132 µM	1.52 µM
